What was measured:
NHKs cells [1] = experiment: ELISA CPDs determination after pre-treatment with G01 and subsequent UVB irradiation; format: cell-based, human; conditions: pre-treatment 90 μM; UVB 80 mJ/cm^2; 6 h and 24 h
Description: The NHKs cells were plated in the specific culture medium and maintained in culture for 24±2 h to allow adhesion to the plate. Then, the keratinocytes were treated for 24±2 h with the compound G01, in a concentration of 90 μM. Subsequently, the plates identified as +UVB and +G01/UVB were exposed, in the irradiation medium, to a UVB dose of 80 mJ/cm^2, while the control plates (Ctr) and those treated only with the compound under examination (G01) were maintained in the dark and at room temperature for a period of time equal to the irradiation time. The irradiation medium was then replaced with the culture medium. Based on the preliminary results obtained on a broader time range, post-treatment times of 6 h and 24 h were selected, after which the plates were processed according to the procedure described in the work instruction specific for the DNA extraction. The determination of the pyrimidine cyclobutane dimers, CPDs, was performed using a specific ELISA kit following the procedure described in the user manual.

[2] = system: primary cultures of human keratinocytes, NHKs; experiment: Cell viability (incorporation of NR) after pre-treatment with G01 and subsequent UV irradiation; format: cell-based; conditions: pre-treatment 24±2 h; UVA 10 J/cm^2, UVB 25 mJ/cm^2; particularly 48 h after irradiation; particularly significant at 90 μM
Description: The cells were plated in the specific culture medium and maintained in culture for 24±2 h to allow adhesion to the plate. The cells were treated for 24±2 h with the concentrations of the compound G01 under evaluation, selected based on the previous results. Subsequently, the cells in the plates identified as +UVA and +UVB were respectively exposed, in the irradiation medium, to doses of UVA of 10 J/cm^2 and UVB of 25 mJ/cm^2, while the control plate was maintained in the dark and at room temperature for a period of time equal to the irradiation time. The irradiation medium was then replaced with the culture medium. The cell viability was measured (incorporation of NR) 24±2 h and 48±2 h after the irradiation, following examination of the morphology of the cells under a microscope, in the absence and the presence of treatment with G01 and/or UVA/UVB irradiation. The cell viability values for each condition tested were compared with the value obtained from the control and plotted on a graph to highlight any differences between the various experimental conditions.

NHKs cells [3] = experiment: ELISA 8-OHdG determination after UVA irradiation and subsequent treatment with G01; format: cell-based, human; conditions: post-treatment 90 μM; UVA 10 J/cm^2; both post-treatment times 6 h and 24 h; vs cells only irradiated
Description: The NHKs cells were plated in the specific culture medium and maintained in culture for 24±2 h to allow adhesion to the plate. Then, the plates identified as +UVA and +UVA/G01 post were respectively exposed, in the irradiation medium, to a UVA dose of 10 J/cm^2. The irradiation medium was then replaced with the culture medium containing the compound of the invention G01, in a concentration of 90 μM. Based on preliminary results obtained on a broader time range, post-treatment times of 6 h and 24 h were selected, after which the plates were processed according to the procedure described in the work instruction specific for the DNA extraction. The determination of 8-OHdG, marker of DNA oxidative damage induced by UVA, was performed using a specific ELISA kit following the procedure described in the user manual.

NHKs cells [4] = experiment: Flow cytometric (annexin V) assessment of UV induced apoptosis after pre-treatment with G01; format: cell-based, human; conditions: pre-treatment 90 μM 24±2 h; UVA 25 J/cm^2, UVB 80 mJ/cm^2; 24 h
Description: (§1) The NHKs cells were plated in the specific culture medium and maintained in culture for 24±2 h to allow adhesion to the plate. Each experimental condition was plated in duplicate. The cells were treated for 24±2 h with G01, in a concentration of 90 μM. Subsequently, the plates identified as +UVA, +G01/UVA, +UVB, and +G01/UVB were respectively exposed, in the irradiation medium, to doses of UVA of 25 J/cm^2 and UVB of 80 mJ/cm^2, while the control plates (Ctr) and those treated only with the compound under examination (G01) were maintained in the dark and at room temperature for a period of time equal to the irradiation time. The irradiation medium was then replaced with the culture medium. Based on the preliminary results obtained on a broader time range, a post-treatment time of 24 h was selected, after which the plates were processed according to the procedure given in the user manual of the specific kit for annexin V flow cytometric analysis (Annexin V), a typical assay to detect the early stages of apoptosis. The positivity for annexin V in each condition tested (treatment with G01 and/or UVA/UVB irradiation) was compared with the positivity in the control cells.

NHKs cells [5] = experiment: Western Blot assessment of ability to repair DNA damage after pre-treatment with G01 and subsequent UV irradiation; format: cell-based, human; conditions: after UVB irradiation 25 mJ/cm^2, 6 h
Description: The NHKs cells were plated in the specific culture medium and maintained in culture for 24±2 h to allow adhesion to the plate. Then, the keratinocytes were treated for 24±2 h with the compound of the invention G01, at concentrations of 60 μM and 90 μM. Subsequently, the plates identified as +UVA, +G01/UVA, +UVB, and +G01/UVB were respectively exposed, in the irradiation medium, to doses of UVA of 10 J/cm^2 and UVB of 25 mJ/cm^2, while the control plates (Ctr) and those treated only with G01 were maintained in the dark and at room temperature for a period of time equal to the irradiation time. The irradiation medium was then replaced with the culture medium. Based on the preliminary results obtained on a broader time range, a post-treatment time of 6 h was selected, after which the plates were processed for Western Blot protein determination.
For each condition tested (treatment with G01 and/or UVA/UVB irradiation), the protein expression of the phosphorylated histone γH2AX, p53 and GADD45a (growth arrest and DNA damage response gene), known markers of DNA damage induced by UV radiation, was compared with the expression in the control cells (Ctr).

NHKs cells [6] = experiment: Flow cytometric (annexin V) assessment of apoptosis induced by UV irradiation and subsequent treatment with G01; format: cell-based, human; conditions: post-treatment 90 μM; UVA 25 J/cm^2, UVB 80 mJ/cm^2; 24 h
Description: as §1, with “duplicate.” for “duplicate. The cells were treated for 24±2 h with G01, in a concentration of 90 μM.”, “culture medium containing the compound G01 in a concentration of 90 μM.” for “culture medium.”, “cytometric analysis.” for “cytometric analysis (Annexin V), a typical assay to detect the early stages of apoptosis.”, “with the compound of the invention under examination” for “with G01”, “and/or UVA/UVBirradiation)” for “and/or UVA/UVB irradiation)”

C/C=C/C=C/C=C/C(=O)O [G01, 2,4,6-trans-octatrienoic acid]
CPDs adducts (pyrimidine cyclobutane dimers) (NHKs cells [1]): promote the removal of CPDs adducts
cell viability after UVA/UVB irradiation [2]: general protective effect of cell viability
amount of 8-OHdG produced by UVA radiation (NHKs cells [3]): significant reduction
apoptosis (positivity for annexin V) induced by UVA and UVB (NHKs cells [4]): reduce the apoptosis
fraction of phosphorylated histone γH2AX (NHKs cells [5]): reduced fraction
apoptosis (positivity for annexin V) induced by UVA and UVB (NHKs cells [6]): reduce the apoptosis

Source: patent US20160213635A1, “COMPOSITIONS USEFUL IN THE PREVENTION OR TREATMENT OF SKIN CANCER” (GIULIANI S.P.A., priority 2013, published 2016)
